Data reported in patent US7728129B2, “Processes for the preparation of piperazinyl and diazapanyl benzamide derivatives” (Janssen Pharmaceutica NV, priority 2005, dated 2010).
Counter-ions that a name gives are not always drawn.

Experiment: Hygroscopicity / humidity stability of salts by Dynamic Vapour Sorption (DVS)
Type: physicochemical
Conditions: solid salt

SMILES: CC(C)N1CCN(C(=O)c2ccc(CN3CCOCC3)cc2)CC1 [(4-Isopropyl-piperazin-1-yl)-(4-morpholin-4-ylmethyl-phenyl)-methanone, dihydrochloride monohydrate salt]
- hygroscopicity by DVS: hygroscopic

SMILES: CC(C)N1CCN(C(=O)c2ccc(CN3CCOCC3)cc2)CC1 [(4-Isopropyl-piperazin-1-yl)-(4-morpholin-4-ylmethyl-phenyl)-methanone Mono-succinate Salt]
- hygroscopicity by DVS (Mono-succinate Salt): non-hygroscopic

SMILES: CC(C)N1CCN(C(=O)c2ccc(CN3CCOCC3)cc2)CC1.O=C(O)/C=C/C(=O)O [(4-Isopropyl-piperazin-1-yl)-(4-morpholin-4-ylmethyl-phenyl)-methanone Mono-fumarate Salt]
- relative humidity up to which the salt is stable, by DVS: up to 70%

SMILES: CC(C)N1CCN(C(=O)c2ccc(CN3CCOCC3)cc2)CC1.O=C(O)/C=C\C(=O)O [(4-Isopropyl-piperazin-1-yl)-(4-morpholin-4-ylmethyl-phenyl)-methanone Bis-maleate Salt]
- hygroscopicity by DVS: hygroscopic

SMILES: CC(C)N1CCN(C(=O)c2ccc(CN3CCOCC3)cc2)CC1 [(4-Isopropyl-piperazin-1-yl)-(4-morpholin-4-ylmethyl-phenyl)-methanone, dihydrobromide semi-hydrate salt]
- relative humidity above which the salt is hygroscopic, by DVS: above 10 % RH
